# Article PMC2912414 (Biochemistry, 2010)
# Target: T1, HpxJ (Klebsiella michiganensis, UniProt B5B0L4)
# T1 sequence (B5B0L4 1-413): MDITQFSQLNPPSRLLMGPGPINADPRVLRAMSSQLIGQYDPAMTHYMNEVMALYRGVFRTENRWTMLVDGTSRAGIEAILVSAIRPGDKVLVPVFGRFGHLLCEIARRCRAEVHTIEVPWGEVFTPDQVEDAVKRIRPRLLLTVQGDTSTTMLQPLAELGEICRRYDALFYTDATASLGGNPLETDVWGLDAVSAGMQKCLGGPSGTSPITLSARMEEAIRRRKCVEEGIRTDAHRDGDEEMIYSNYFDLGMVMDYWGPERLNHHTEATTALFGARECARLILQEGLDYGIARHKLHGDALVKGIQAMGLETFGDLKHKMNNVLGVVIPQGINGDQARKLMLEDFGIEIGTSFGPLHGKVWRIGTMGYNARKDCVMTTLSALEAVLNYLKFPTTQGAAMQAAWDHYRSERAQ
# Experiment: pre-steady-state PLP to PMP conversion
# Type: biochemical
# Details: amino donor; glyoxylate as acceptor in HPLC assay
compound,measurement,value
N[C@@H](CC(=O)O)C(=O)O [aspartate],rate of first half reaction,"an order of magnitude faster than the next fastest substrate, aspartate"
